The subject of assay [1] is C5a induced human PMN chemotaxis. In words: C5a induced chemotaxis of human PMNs (microchamber assay). The format is cell-based. Particulars: for inhibition at 0.1 µM / inhibition at 0.01 µM: Homo sapiens, read-out: % inhibition C5a induced PMN migration; for inhibition at 0.1 µM: drug concentration: 10^−7 M (footnote a); for inhibition at 0.01 µM: drug concentration: 10^−8 M (footnote b); for inhibitory activity on C5a: compounds lacking the additional hydrogen bond acceptor group. The method, then: The compounds of the invention of formula (I) were evaluated in vitro for their ability to inhibit chemotaxis of polymorphonucleate leukocytes (hereinafter referred to as PMNs) and monocytes induced by the fractions of the complement C5a and C5a-desArg. For this purpose, to isolate the PMNs from heparinized human blood, taken from healthy adult volunteers, mononucleates were removed by means of sedimentation on dextran (according to the procedure disclosed by W. J. Ming et al., J. Immunol., 138, 1469, 1987) and red blood cells by a hypotonic solution. The cell vitality was calculated by exclusion with Trypan blue, whilst the ratio of the circulating polymorphonucleates was estimated on the cytocentrifugate after staining with Diff Quick.
Human recombinant fractions C5a and C5a-desArg (Sigma) were used as stimulating agents in the chemotaxis experiments, giving practically identical results.
The lyophilized C5a was dissolved in a volume of HBSS containing 0.2% bovin serum albumin BSA so thus to obtain a stock solution having a concentration of 10^−5 M to be diluted in HBSS to a concentration of 10^−9 M, for the chemotaxis assays.
In the chemotaxis experiments, the PMNs were incubated with the compounds of the invention of formula (I) for 15′ at 37° C. in an atmosphere containing 5% CO2. The chemotactic activity of the C5a was evaluated on human circulating polymorphonucleates (PMNs) resuspended in HBSS at a concentration of 1.5×10^6 PMNs per mL.
During the chemotaxis assay (according to W. Falket et al., J. Immunol. Methods, 33, 239, 1980) PVP-free filters with a porosity of 5 μm and microchambers suitable for replication were used.
The compounds of the invention in formula (I) were evaluated at a concentration ranging between 10^−7 and 10^−10 M; for this purpose they were added, at the same concentration, both to the lower pores and the upper pores of the microchamber. The wells in the lower part contain the solution of C5a or the simple carrier, those in the upper part contain the suspension of PMNs.
Inhibition of C5a-induced chemotactic activity by the individual compounds of the invention of formula (I) was evaluated by incubating the microchamber for the chemotaxis for 60 min at 37° C. in an atmosphere containing 5% CO2.
By way of example, the inhibition data of the chemotaxis of PMN (concentration range between 10^−7 and 10^−8 M) of some representative compounds of the invention are reported in Table 2.

Assay [2] deals with CXCL8 induced human PMN chemotaxis. In words: IL-8 (CXCL8) induced PMN chemotaxis. The format is cell-based. The conditions noted are these: drug concentration 10^−8M, Table 1.
The subject of assay [3] is C5a induced human PMN chemotaxis. Particulars: previously reported; cited from earlier work.
Assay [4] shares this test system. In words: C5a induced chemotaxis of human PMNs (microchamber assay). The assay is classed as cell-based. Particulars: for inhibitory activity on C5a induced PMN chemotaxis at high drug concentration: c=10^−6M; for C5a (10^−6M): drug concentration 10^−6M, PMN chemotaxis, Table 1, n.a. = not active.

Turning to `C[C@@H](C(N)=O)c1cccc(C(=O)c2ccco2)c1` [Example 3], the inhibition at 0.1 µM in assay [1] amounted to 65 ± 6%. As for `C[C@@H](C(=O)NO)c1cccc(C(=O)c2nccs2)c1` [Example 32, (R)-2-[3-(thiazole-2-carbonyl)phenyl]-N-hydroxypropionamide], in assay [1], the inhibition at 0.01 µM worked out at 30 ± 2%. Consider `C[C@@H](C(N)=O)c1cccc(S(=O)(=O)c2ccccc2)c1` [Example 17, (R)-2-(3-benzenesulfonylphenyl)propionamide], for which the inhibition at 0.1 µM in assay [1] worked out at 54 ± 7%. For the molecule `C[C@@H](C(N)=O)c1cccc(Nc2ccccn2)c1` [Example 13, (R)-2-[3-(pyridin-2-ylamino)phenyl]propionamide], the inhibition at 0.1 µM in assay [1] was determined as 38 ± 3%. For `C[C@@H](C(=O)Nc1nccs1)c1cccc(C(=O)c2ccco2)c1` [Example 27, (R)-2-[3-(furan-2-carbonyl)phenyl]-N-(2H-thiazol-2-yl)propionamide], in assay [1], the inhibition at 0.01 µM was 60 ± 5%. On to `C[C@@H](C(N)=O)c1cccc(C(=O)c2nccs2)c1` [Example 5, (R)-2-[3-(thiazole-2-ylcarbonyl)phenyl]propionamide], for which the inhibition at 0.01 µM in assay [1] was found to be 31 ± 7%. In the case of `CC(C)Cc1ccc([C@@H](C)C(=O)NS(C)(=O)=O)cc1` [N-[(R)-2-(4-isobutylphenyl)propionyl]methanesulfonamide, reference compound], the “IL-8 (10^−8M)” value in assay [2] was determined as 65 ± 5. Also, the “inhibitory activity on C5a” value in assay [1] is “do not exhibit any inhibitory activity”. `C[C@@H](C(N)=O)c1cccc(C(=O)Nc2c(Cl)cccc2Cl)c1` [Example 7, 3-((R)-1-carbamoylethyl)-N-(2,6-dichlorophenyl)benzamide]: in assay [1], the inhibition at 0.1 µM came to 57 ± 8%. On the same count and under the same terms, next, `CC(C)C(=O)c1cccc([C@@H](C)C(N)=O)c1` [Example 1, (R)-2-[3-(isobutyryl)phenyl]propionamide]: 50 ± 7%.

Turning to `C[C@@H](C(=O)NO)c1cccc(C(=O)c2ccco2)c1` [Example 31, (R)-2-[3-(furan-2-carbonyl)phenyl]-N-hydroxypropionamide], the inhibition at 0.01 µM in assay [1] amounted to 70 ± 5%. In the case of `CC(C)c1cccc([C@@H](C)C(N)=O)c1` [(R)-2-(3-isopropylphenyl)propionamide, reference compound], the “IL-8 (10^−8M)” value in assay [2] was found to be 60 ± 5. For the same molecule, the “inhibitory activity on C5a” value in assay [1] is on record as “do not exhibit any inhibitory activity”.

Turning to `CC(C(N)=O)c1cccc(NC(=O)c2ccccc2)c1` (stereo not drawn) [Example 19, 2-(3-benzoylamino)phenyl propionamide], the inhibition at 0.1 µM in assay [1] is 34 ± 11%. Still for that read-out and setting: then `C[C@@H](C(=O)NS(C)(=O)=O)c1cccc(C(=O)C2CCCC2)c1` [Example 20, N—[(R)-2-(3-cyclopentanecarbonylphenyl)propionyl]methanesulfonamide], with 22 ± 2%; and `C[C@@H](C(=O)Nc1nc(C(F)(F)F)cs1)c1cccc(C(=O)c2cc3ccccc3o2)c1` [Example 29, (R)-2-[3-(benzofuran-2-carbonyl)phenyl]-N-(4-trifluoromethyl-2H-thiazol-2-yl)propionamide], with 40 ± 12%. For the molecule `C[C@@H](C(=O)NS(C)(=O)=O)c1cccc(C(=O)c2ccccc2)c1` [N-[(R)-2-(3-benzoylphenyl)propionyl]methanesulfonamide], the “IL-8 (10^−8M)” value in assay [2] is reported as 38 ± 5. For the same molecule, the “activity on the C5a induced PMN chemotaxis” value in assay [3] is on record as “negligible activity”. In addition, in assay [4], the “inhibitory activity on C5a induced PMN chemotaxis at high drug concentration” value is “moderate inhibitory activity” and the “C5a (10^−6M)” value came out at 20 ± 5. For the molecule `C[C@@H](C(N)=O)c1ccc2c(c1)NC(=O)CC2` [Example 16, (R)-2-(oxo-1,2,3,4-tetrahydroquinolin-7-yl)propionamide], in assay [1], the inhibition at 0.01 µM is 45 ± 10%. Consider `C[C@@H](C(=O)Nc1ccccn1)c1cccc(C(=O)c2ccco2)c1` [Example 26, (R)-2-[3-(furan-2-carbonyl)phenyl]-N-pyrid-2-yl propionamide], for which, in assay [1], the inhibition at 0.01 µM is 45 ± 9%.

With `C[C@@H](C(=O)NCC(=O)O)c1cccc(C(=O)c2ccco2)c1` [Example 34], the inhibition at 0.1 µM in assay [1] came to 51 ± 7%. The same measure, in the same setting: then `C[C@@H](C(N)=O)c1cccc(-c2ccco2)c1` [Example 15], with 41 ± 7%. As for `C[C@@H](C(=O)NS(C)(=O)=O)c1cccc(C(=O)c2ccco2)c1` [Example 21], the inhibition at 0.01 µM in assay [1] came to 61 ± 15%. As to `C[C@@H](C(N)=O)c1cccc(-c2ncco2)c1` [Example 14], the inhibition at 0.1 µM in assay [1] is 63 ± 9%. For `COc1ccccc1Oc1cccc([C@@H](C)C(N)=O)c1` [Example 10, (R)-2-[3-(2-methoxyphenoxy)phenyl]propionamide], the inhibition at 0.01 µM in assay [1] amounted to 55 ± 6%. In the case of `C[C@@H](C(N)=O)c1cccc(C(=O)c2cc3ccccc3o2)c1` [Example 4, (R)-2-[3-(2-benzofuran-2-carbonyl)phenyl]propionamide], the inhibition at 0.01 µM in assay [1] is 55 ± 7%. Take `CC(C)Cc1ccc([C@@H](C)C(N)=O)cc1` [(R)-2-(4-isobutylphenyl)propionamide, reference compound]: the “IL-8 (10^−8M)” value in assay [2] worked out at 57 ± 12. For the same molecule, the “inhibitory activity on C5a” value in assay [1] is listed as “do not exhibit any inhibitory activity”. Turning to `C[C@@H](C(=O)NS(C)(=O)=O)c1cccc(C(=O)c2cccs2)c1` [Example 23], the inhibition at 0.1 µM in assay [1] was determined as 37 ± 11%. Regarding `C[C@@H](C(=O)Nc1ccccn1)c1cccc(C(=O)C2CCCC2)c1` [Example 30, (R)-2-(3-cyclopentanecarbonylphenyl)-N-pyrid-2-ylpropionamide], in assay [1], the inhibition at 0.01 µM is 51 ± 5%.

As for `C[C@@H](C(=O)Nc1nc(C(F)(F)F)cs1)c1cccc(C(=O)c2ccco2)c1` [Example 28, (R)-2-[3-(furan-2-carbonyl)phenyl]-N-(4-trifluoromethyl-2H-thiazol-2-yl)propionamide], the inhibition at 0.01 µM in assay [1] is 49 ± 9%. `COc1ccccc1Nc1cccc([C@@H](C)C(N)=O)c1` [Example 12, (R)-2-[3-(2-methoxyphenylamino)phenyl]propionamide]: the inhibition at 0.1 µM in assay [1] came to 60 ± 8%. Same read-out and setting: next, `Cc1cccc(C)c1NC(=O)c1cccc([C@@H](C)C(N)=O)c1` [Example 8, 3-((R)-1-carbamoylethyl)-N-(2,6-dimethylphenyl)benzamide]: 65 ± 10%; `CC(=O)Nc1cccc(C(C)C(N)=O)c1` (stereo not drawn) [Example 18, 2-(3-acetylamino)phenyl propionamide]: 83 ± 2%; `C[C@@H](C(N)=O)c1cccc(C(=O)C2CCCC2)c1` [Example 2, (R)-2-[3-(cyclopentanecarbonyl)phenyl]propionamide]: 59 ± 16%.

On to `C[C@@H](C(N)=O)c1cccc(Nc2ccccc2Cl)c1` [Example 11, (R)-2-[3-(2-chlorophenylamino)phenyl]propionamide], for which, in assay [1], the inhibition at 0.1 µM turned out to be 42 ± 5%. The same measure, in the same setting: next, `C[C@@H](C(N)=O)c1cccc(C(=O)Nc2ncccc2Cl)c1` [Example 9, 3-((R)-1-carbamoylethyl)-N-(3-chloropyridin-2-yl)benzamide]: 40 ± 2%.

For the molecule `CC(NC(=O)[C@H](C)c1cccc(C(=O)c2ccco2)c1)C(=O)O` (stereo partly drawn) [Example 33, 2-{(R)-2-[3-(furan-2-carbonyl)phenyl]propionylamino}propionic acid], the inhibition at 0.1 µM in assay [1] is 40 ± 5%. Regarding `Cc1ccc(C(=O)c2cccc([C@@H](C)C(=O)NS(C)(=O)=O)c2)o1` [Example 22], the inhibition at 0.01 µM in assay [1] came to 53 ± 6%. In the case of `C[C@@H](C(=O)NS(C)(=O)=O)c1cccc(C(=O)c2cc3ccccc3o2)c1` [Example 24], the “% inhibition C5a induced PMN migration” value in assay [1] (drug concentration not marked) was determined as 53 ± 5%. Regarding `C[C@@H](C(=O)NS(C)(=O)=O)c1cccc(C(=O)c2ncco2)c1` [Example 25], the inhibition at 0.1 µM in assay [1] was 38 ± 8%. As for `C[C@@H](C(N)=O)c1cccc(C(=O)c2ncco2)c1` [Example 6, (R)-2-[3-(1,3-oxazol-2-ylcarbonyl)phenyl]propionamide], in assay [1], the inhibition at 0.01 µM came to 26 ± 6%. For `C[C@@H](C(N)=O)c1cccc(C(=O)c2ccccc2)c1` [(R)-2-(3-benzoylphenyl)propionamide], the “IL-8 (10^−8M)” value in assay [2] is given as 37 ± 7. Besides, the “activity on the C5a induced PMN chemotaxis” value in assay [3] was “negligible activity”. Besides, in assay [4], the “inhibitory activity on C5a induced PMN chemotaxis at high drug concentration” value is “moderate inhibitory activity” and the “C5a (10^−6M)” value worked out at 30 ± 2.

The values are drawn from patent US7939521B2, “2-arylpropionic acid derivatives and pharmaceutical compositions containing them” (DompePHA.R.MA S.p.A., priority 2004, dated 2011).
